Assay results published in patent publication US20140206678A1, “INHIBITORS OF MTOR KINASE AS ANTI -VIRAL AGENT” (KADMON CORPORATION, LLC, priority 2011, published 2014).

How the values were obtained:
[1] = system: HCMV DNA; experiment: HCMV viral DNA in infected fibroblasts by qPCR; format: cell-based, human cytomegalovirus
Protocol: FIG. 2. […] Serum-starved confluent fibroblasts were infected with HCMV at a multiplicity of 3 PFU/cell. […] Control cultures received the vehicle in which Torin1 was dissolved (NT). At 2 hpi cells were harvested, and cell-associated viral DNA was quantified by real-time PCR analysis. Error bars represent the standard errors of the means from two independent experiments performed in duplicate. […] The level of IE1 was determined at 6 hpi by a Western blot assay using an IE1-specific monoclonal antibody. The image is representative of two independent experiments. […] The expression of a GFP marker gene present in the viral genome was monitored at 24 h after infection in the presence or absence of drug.
FIG. 3. […] Cells were harvested at the indicated times, and the accumulation of the indicated proteins was analyzed by Western blotting. […] At the indicated times DNA was isolated, and viral DNA was quantified by qPCR. Equivalent amounts of DNA were analyzed for each sample, and the results are normalized to the level of actin DNA per sample. […] At the indicated times the amount of UL99 RNA was determined by qPCR, and the results are normalized to the amount of actin RNA in each sample. […]
Briefly, primary human fibroblasts were infected with BADinGFP at a multiplicity of 0.05 PFU/cell. […] For each sample, DNA was quantified by using a NanoDrop spectrophotometer (Thermo Scientific). […]

[2] = system: mTORC1 targets (4EBP1, rpS6); experiment: Phosphorylation of mTORC1 targets in HCMV-infected fibroblasts (Western blot); format: cell-based, human; details: rapamycin 20 nM, Torin1 250 nM
[3] = system: eIF4F complex and 4EBP1; experiment: m7GTP-Sepharose cap-analog binding (eIF4F complex) in HCMV-infected fibroblasts; format: cell-based, human; details: rapamycin 20 nM, Torin1 250 nM
Protocol: FIG. 4. Rapamycin-resistant mTOR activity is required for 4EBP1 phosphorylation and eIF4F complex integrity during HCMV infection. Serum-starved confluent human fibroblasts were infected with HCMV at a multiplicity of 3 PFU/cell. […] (A) At 48 hpi the phosphorylation status of mTORC1 targets was assessed by Western blot assay by using antibodies to phosphorylated targets (4EBP1-PT^37/46 and rpS6-PS^235/6) and total proteins. Tubulin was assayed as a loading control. (B) Same as above (A) except that cells were harvested at the indicated times. (C and D) After mock infection (M) or infection with HCMV (WT) at a multiplicity of 3 PFU/cell, cultures were harvested at the indicated times. Equivalent amounts of protein from each sample were incubated with m^7GTP-Sepharose, and the isolated protein complexes were analyzed by Western blotting using the indicated antibodies to the eIF4F complex and 4EBP1. In all cases the results are representative of at least two independent experiments. lys, lysate.
The phosphorylation status of 4EBP1 regulates cap-dependent protein translation. Hypophosphorylated 4EBP1 binds to eIF4E and inhibits the formation of the eIF4F complex, while the phosphorylation of 4EBP1 inhibits its interaction with eIF4E. […]

[4] = system: MCMV; experiment: MCMV replication in mouse embryo fibroblasts, TCID50; format: cell-based, murine cytomegalovirus; details: Torin1 250 nM
[5] = system: mTORC1 targets (4EBP1, rpS6); experiment: Phosphorylation of mTORC1 targets in MCMV-infected MEFs (Western blot); format: cell-based, mouse; details: Torin1 250 nM; for 4EBP1 phosphorylation: MCMV
[6] = system: γHV68; experiment: γHV68 replication in MEFs, TCID50; format: cell-based, murine gammaherpesvirus 68; details: 6 days post infection, rapamycin 20 nM, Torin1 250 nM
[7] = 48 hpi, rapamycin 20 nM, LY294002 20 μM

For `CCC(=O)N1CCN(c2ccc(-n3c(=O)ccc4cnc5ccc(-c6cnc7ccccc7c6)cc5c43)cc2C(F)(F)F)CC1` [Torin1], the “level of cell-associated viral DNA” value ([1]; 2 hpi, 250 nM, pretreated 24 h or after adsorption, 3 PFU/cell) was “not influenced”, the “reduction of viral DNA accumulation” value ([1]; 96 hpi, Torin1 250 nM, 0.05 PFU/cell) was 150 fold and the “phosphorylation of 4EBP1 during HCMV infection” value [2] was “substantially blocked”. The “induction of rpS6 phosphorylation during HCMV infection” value ([2]; 48 hpi) was “markedly inhibited”, the “association of 4EBP1 with m7GTP-Sepharose cap analog” value [3] was “substantially increased association” and the “association of eIF4G and eIF4A with the cap analog” value [3] was “reduced association”. For the same compound, the MCMV replication ([4]; 4EBP1-null MEFs, rapamycin 20 nM, 6 days post infection) was “no longer capable of inhibiting”, the MCMV replication ([4]; Akt1/Akt2-null MEFs) was “Torin-sensitive” and the MCMV replication ([4]; Rictor-null MEFs, 6 days post infection) was “effectively inhibited”. For the same compound, the MCMV replication ([4]; wild-type MEFs, rapamycin 20 nM, 0.05 PFU/cell) was “inhibited”, the “phosphorylation of 4EBP1 in MCMV-infected MEFs” value [5, 7] was “inhibited” and the “phosphorylation of rpS6 in MCMV-infected MEFs” value [5, 7] was “completely inhibited”. For the same compound, the 4EBP1 phosphorylation ([5]; Akt1/Akt2-null MEFs) was “inhibited”, the 4EBP1 phosphorylation ([5]; Rictor-null MEFs) was “effectively inhibited” and the γHV68 replication [6] was “inhibited”.
